Experimental data from patent publication US8471063B2, “Michael systems as transglutaminase inhibitors” (Zedira GmbH, priority 2006, dated 2013).
*1 amine or outer side, *2 acyl side, *3 side chain or, on linkers, in order; H or OH if unused. Where a SMILES comes first, the peptide text is derived from it. [ ]: non-standard residue; d: D form. The star is where a group is joined. Nle(5E-ene,6-CO2Et) = CCOC(=O)/C=C/CC[C@H](N)C(=O)O; X7 = O=C(/C=C/CC[C@H](N[*:1])C(=O)[*:2])OCc1ccccc1; Tic = O=C(O)[C@@H]1Cc2ccccc2CN1; Cbz = O=C(OCc1ccccc1)*

The compounds below were run against T1, recombinant human tissue transglutaminase (His6-rh-TG2) (Homo sapiens, UniProt P21980) (assay: Inactivation of human tissue transglutaminase, fluorescence assay, IC50). Conditions: Table 1; 5 min preincubation, 37° C.
T1 sequence (P21980 1-687): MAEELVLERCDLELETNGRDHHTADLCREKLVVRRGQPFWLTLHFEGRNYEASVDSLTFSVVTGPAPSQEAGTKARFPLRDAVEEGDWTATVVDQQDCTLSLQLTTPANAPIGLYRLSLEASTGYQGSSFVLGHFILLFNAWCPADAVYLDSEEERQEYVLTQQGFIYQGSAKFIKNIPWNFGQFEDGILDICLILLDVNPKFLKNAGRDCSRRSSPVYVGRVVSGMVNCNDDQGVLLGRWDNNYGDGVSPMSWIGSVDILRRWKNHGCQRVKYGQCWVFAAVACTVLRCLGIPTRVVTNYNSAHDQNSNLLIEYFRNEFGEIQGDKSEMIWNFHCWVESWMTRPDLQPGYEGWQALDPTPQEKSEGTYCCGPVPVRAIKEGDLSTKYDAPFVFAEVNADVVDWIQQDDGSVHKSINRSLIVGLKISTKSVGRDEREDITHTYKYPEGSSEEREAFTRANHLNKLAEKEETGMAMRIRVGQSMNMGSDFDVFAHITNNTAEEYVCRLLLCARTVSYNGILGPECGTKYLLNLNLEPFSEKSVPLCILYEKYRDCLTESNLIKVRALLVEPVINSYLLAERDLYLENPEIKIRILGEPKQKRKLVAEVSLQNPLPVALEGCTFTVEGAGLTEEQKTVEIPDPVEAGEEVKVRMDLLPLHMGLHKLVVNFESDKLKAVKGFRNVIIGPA
Assay type: biochemical
Protocol: 250 μg of lyophilized his-tagged recombinant human tissue transglutaminase (His6-rh-TG2) are reconstituted by the addition of 150 μl of water (resulting buffer 50 mM of NaH2PO4, 150 mM of NaCl, pH=8).
A 10 mM inhibitor stock solution in DMSO is prepared and diluted with buffer (50 mM of Tris-HCl, 10 mM of CaCl2, 5 mM of DTT, pH=7.5, respectively) to the 20-fold of the concentration desired for the inhibition mixture (at least 1/50 dilution resulting in 2% DMSO concentration).
900 μl of an assay solution composed of 55.56 mM of Tris, 11.11 mM of CaCl2, 0.11% PEG8000, 5.56 mM of DTT, 5.56 mM of glycine methyl ester and 50 μM of Abz-APE(CAD-DNP)QEA-OH, (patent number:), pH=7.5 are placed in a cuvette and brought to a temperature of 37° C. in the measuring cell of a spectrophotometer. 50 μl of the respective inhibitor solution are added to said solution (resulting in a concentration of less than 0.2% of DMSO in the mixture).
7 μl of the transglutaminase solution reconstituted above are diluted with 51 μl of buffer (50 mM of Tris, 100 mM of NaCl, 5 mM of DTT, pH=7.5). 50 μl of said enzyme solution (10 μg His6-rhTG2) are added to the assay solution containing the respective inhibitor concentration. The mixture is incubated for 5 min at 37° C. before the measurement is performed. λexc=313 nm and λem=418 nm, 15 min)
The resulting enzyme activity was measured by analyzing the slope of the straight line obtained by the increase in fluorescence.
DMSO is used instead of inhibitor stock solution in order to determine the non-inhibited enzyme activity. IC50 values are determined by plotting the resulting enzyme activity against the logarithm of the inhibitor concentration. IC50 is defined as the concentration of an inhibitor at which enzyme activity is reduced to 50% after 5 min of preincubation.

Compound	IC50 [µM]
CCOC(=O)C=CC(=O)CC[C@H](NC(=O)OCc1ccccc1)C(=O)N[C@H](C(=O)N1CCC[C@H]1C(=O)N[C@@H](CC(C)C)C(=O)OC)C(C)C [Compound 9, N^α-benzyloxycarbonyl-{[L-7-amino-4-oxo-oct-2-ene-dicarboxylic acid]-1-ethanoyl}-L-valinyl-L-prolinyl-leucine methyl ester]	18
COC(=O)/C=C/CC[C@H](NC(C)=O)C(=O)N[C@@H](CCC(N)=O)C(=O)N[C@@H](CCC(=O)O)C(=O)N[C@@H](C)C(=O)OC [Compound 10, N^α-Acetyl-{[(E)-(L)-6-amino-hept-2-ene-dicarboxylic acid]-1-methanoyl}-L-glutaminyl-L-glutamyl-L-alanine methyl ester]	0.33
COC(=O)/C=C/CC[C@H](NC(C)=O)C(=O)N[C@@H](CCC(N)=O)C(=O)N[C@@H](CCC(=O)O)C(=O)OC [Compound 11, N^α-acetyl-{[(E)-(L)-6-amino-hept-2-ene-dicarboxylic acid]-1-methanoyl}-L-glutaminyl-L-glutamyl methyl ester]	2.1
COC(=O)/C=C/CC[C@H](NC(=O)OCc1ccccc1)C(=O)N[C@@H](Cc1ccccc1)C(=O)N1CCC[C@H]1C(=O)N[C@@H](CC(C)C)C(=O)OC [Compound 13, N^α-benzyloxycarbonyl-{[(E)-(L)-6-amino-hept-2-enedicarboxylic acid]-1-methanoyl}-L-phenylalaninyl-L-prolinyl-L-leucine methyl ester]	1.5
COC(=O)/C=C/CC[C@H](NC(C)=O)C(=O)N[C@@H](Cc1ccc(F)cc1)C(=O)N1CCC[C@H]1C(=O)N[C@@H](CC(C)C)C(=O)OC [Compound 14, N^α-acetyl-{[(E)-(L)-6-amino-hept-2-ene-dicarboxylic acid]-1-methanoyl}-L-(p-fluoro)-phenylalaninyl-L-prolinyl-L-leucine methyl ester]	1.1
COC(=O)/C=C/CC[C@H](NC(=O)OCc1ccccc1)C(=O)N[C@@H](Cc1ccc(F)cc1)C(=O)N1CCC[C@H]1C(=O)N[C@@H](CC(C)C)C(=O)OC [Compound 15, N^α-benzyloxycarbonyl-{[(E)-(L)-6-amino-hept-2-ene-dicarboxylic acid]-1-methanoyl}-L-(p-fluoro)-phenylalaninyl-L-prolinyl-L-leucine methyl ester]	0.88
CCOC(=O)/C=C/CC[C@H](NC(=O)OCc1ccccc1)C(=O)N[C@@H](CCC(N)=O)C(=O)N1CCC[C@H]1C(=O)N[C@@H](Cc1ccc(O)cc1)C(=O)OC [Compound 19, N^α-benzyloxycarbonyl-{[(E)-(L)-6-amino-hept-2-ene-dicarboxylic acid]-1-ethanoyl}-L-glutaminyl-L-proline-L-tyrosine methyl ester] (Cbz-[Nle(5E-ene,6-CO2Et)]QPY-OMe)	2.4
CCOC(=O)/C=C/CC[C@H](NC(=O)OCc1ccccc1)C(=O)N[C@@H](CCC(N)=O)C(=O)N1CCC[C@H]1C(=O)N[C@@H](CC(C)C)C(=O)OC [Compound 20, N^α-benzyloxycarbonyl-{[(E)-(L)-6-amino-hept-2-ene-dicarboxylic acid]-1-ethanoyl}-L-glutaminyl-L-prolinyl-L-leucine methyl ester] (Cbz-[Nle(5E-ene,6-CO2Et)]QPL-OMe)	2
CCOC(=O)C=CC(=O)CC[C@H](NC(C)=O)C(=O)N[C@@H](CCC(N)=O)C(=O)N1CCC[C@H]1C(=O)N[C@@H](CC(C)C)C(=O)OC [Compound 22, N^α-acetyl-{[L-7-Amino-4-oxo-oct-2-ene-dicarboxylic acid]-1-ethanoyl}-L-glutaminyl-L-prolinyl-L-leucine methyl ester]	0.07
COC(=O)[C@H](CC(C)C)NC(=O)[C@@H]1Cc2ccccc2CN1C(=O)[C@H](CCC(N)=O)NC(=O)[C@H](CC/C=C/C(=O)OCc1ccccc1)NC(=O)[C@@H]1CCCN1C(=O)[C@H](CCC(N)=O)NC(=O)[C@@H]1CCCN1C(=O)OCc1ccccc1 [Compound 41] (Cbz-PQP[X7]Q[Tic]L-OMe)	0.215
CC(=O)NCCC(=O)N1CCCC(C(=O)C(CC/C=C/C(=O)OC(C)C)N2Cc3nc[nH]c3CC2C(=O)NC(CNC(N)=O)C(=O)NC(CC(C)C)C(=O)N2CCCC2C(=O)NC(Cc2ccc(Oc3ccc(O)cc3)cc2)C(=O)O)C1 (centres unmarked) [Compound 42]	4
N^α-(2-fluorobenzoyl)-{[L-7-amino-4-oxo-oct-2-ene-dicarboxylic acid]-1-methanoyl}-L-valinyl-L-4-fluoroprolinyl-leucine isopropyl ester [Compound 24]	8
N^α-(5-methylisoxazol-3-carbonyl)-{[L-7-amino-4-oxo-oct-2-ene-dicarboxylic acid]-1-isopropanoyl}-L-valinyl-L-prolinyl-leucine methyl ester [Compound 23]	0.056
N^α-acetyl-{[(E)-(L)-6-Amino-hept-2-ene dicarboxylic acid]-1-methanoyl}-L-phenylalaninyl-L-prolinyl-L-leucine methyl ester [Compound 12]	1.8
N^α-benzyloxycarbonyl-{[(E)-(L)-6-amino-hept-2-ene-dicarboxylic acid]-1-ethanoyl}-L-leucinyl-L-prolinyl-L-glutamine methyl ester [Compound 21]	3.2
[(E)-(L)-6-(2-Oxo-pyrrolidon-1-yl)hept-2-ene-dicarboxylic acid 1-ethanoyl]-L-valinyl-L-homoprolinyl-L-leucine methyl ester [Compound 16]	22
[(E)-(L)-6-(2-oxo-pyrrolidon-1-yl)-hept-2-ene-dicarboxylic acid-1-ethanoyl]-L-cyclohexylglycinyl-L-homoprolinyl-L-leucine methyl ester [Compound 17]	35
[(E)-(L)-6-(2-oxo-pyrrolidon-1-yl)-hept-2-ene-dicarboxylic acid-1-ethanoyl]-L-cyclohexylglycinyl-L-prolinyl-L-leucine methyl ester [Compound 18]	28

Same assay, conditions: Table 2; 5 min preincubation, 37° C.

Compound	IC50 [µM]
COC(=O)C(CC(C)C)NC(=O)C1CCCN1C(=O)C(CCC(N)=O)NC(=O)C(CCC=CC#N)NC(=O)OCc1ccccc1 [Compound 3.2.11, N^α-benzyloxycarbonyl)-[(Z)-(L)-2-amino-6-cyano-hex-5-ene-dicarboxylic acid]-L-glutaminyl-L-prolinyl-L-leucine methyl ester]	43
N^α-benzyloxycarbonyl)-[(Z)-(L)-2-amino-7-oxo-oct-5-ene-dicarboxylic acid]-L-glutaminyl-L-prolinyl-L-leucine methyl ester [Compound 3.2.10]	56
